Experimental findings from patent US20180000794A1, “COMPOSITION FOR PREVENTION OR TREATMENT OF BRONCHIAL ASTHMA COMPRISING PKR INHIBITOR AS ACTIVE INGREDIENT” (INDUSTRIAL COOPERATION FOUNDATION CHONBUK NATIONAL …, priority 2015, published 2018) are described below.

What all share (format): in vivo, mouse
For assay [1], the system named is mice with neutrophilic severe asthma. Description: Peribronchitis and perivascular inflammation in lung tissues (H&E histology) of mice with neutrophilic severe asthma. The note with it: C57BL/6 mice, OVA+LPS-induced asthma; H&E stained lung sections, optical microscope 20×; FIG. 2. The source says:
(§1) 8-week old female C57BL/6 mice were purchased from Orient Bio (Sungnam, Korea) and used as experimental animals. Experimental groups were divided into 4 groups and 5 C57BL/6 mice were assigned to each group. Animals in one experimental group were inhaled with saline and treated with vehicle. Animals in the other three experimental groups were sensitized with ovalbumin (OVA) and lipopolysaccharide (LPS), followed by inhalation of ovalbumin to induce asthma. Animals with induced asthma in one experimental group were treated with vehicle 1 hour before the first inhalation of ovalbumin and 6 hours after the last inhalation of ovalbumin. Animals in the other two experimental groups were intraperitoneally administered with 60 μg/kg and 600 g/kg of the PKR inhibitor [6,8-Dihydro-8-(1H-imidazol-5-ylmethylene)-7H-pyrrolo[2,3-g]benzothiazol-7-one] a total of two times, 1 hour before the first inhalation of ovalbumin and 6 hours after the last inhalation of ovalbumin. […]

Assay [2] has the same test system. Description: Bronchial hyperresponsiveness (Rrs) to aerosol methacholine in mice with neutrophilic severe asthma. Conditions: methacholine 5.0 to 50 mg/ml by nebulizer; compared to the group treated with vehicle only; FIG. 3.
Description: as §1, with “ovalbumin.” for “ovalbumin. Animals in the other two experimental groups were intraperitoneally administered with 60 μg/kg and 600 g/kg of the PKR inhibitor [6,8-Dihydro-8-(1H-imidazol-5-ylmethylene)-7H-pyrrolo[2,3-g]benzothiazol-7-one] a total of two times, 1 hour before the first inhalation of ovalbumin and 6 hours after the last inhalation of ovalbumin.”
In order to identify the effects of the PKR inhibitor of the present invention on bronchial hyperresponsiveness in mouse models with neutrophilic severe asthma, aerosol methacholine was administered into the airways of mice, and then the changes in airway function were measured. […] At the same time, the mice were administered with methacholine through the ventilator while gradually increasing the dose from 5.0 mg/ml to 50 mg/ml using a nebulizer, and the bronchial hyperresponsiveness (Rrs) was continuously measured. The bronchial hyperresponsiveness was assessed as a percentage of the basal value when the maximum of Rrs values measured at each methacholine concentration was administered to saline control, and the results are shown in FIG. 3.

For assay [3], the system named is IL-4, IL-5, IL-13, IL-17, KC. Kind of assay: Cytokines and chemokines in lung tissues by Western blotting, mice with neutrophilic severe asthma. Conditions: Western blotting of lung tissue proteins; OVA+LPS-induced asthma; FIGS. 4A to 4E.
Description: as §1, with “ovalbumin.” for “ovalbumin. Animals in the other two experimental groups were intraperitoneally administered with 60 μg/kg and 600 g/kg of the PKR inhibitor [6,8-Dihydro-8-(1H-imidazol-5-ylmethylene)-7H-pyrrolo[2,3-g]benzothiazol-7-one] a total of two times, 1 hour before the first inhalation of ovalbumin and 6 hours after the last inhalation of ovalbumin.”
Quantitation of cytokines and chemokines was confirmed by Western blotting of the proteins in lung tissues. […] Then, the samples were loaded on SDS-PAGE gel and quantitated using an anti-IL-4 antibody (Serotec, UK) against IL-4, an anti-IL-5 antibody (SantaCruz Biotechnology, USA) against IL-5, anti-IL-13 and anti-IL-17 antibodies (R&D Systems, USA) against IL-13 and IL-17, and an anti-KC antibody against keratinocyte-induced chemokine (KC) (BioVision, USA), and the results are shown in FIGS. 4A to 4E.

Take `O=C1Nc2ccc3ncsc3c2/C1=C/c1c[nH]cn1` [PKR inhibitor, 6,8-Dihydro-8-(1H-imidazol-5-ylmethylene)-7H-pyrrolo[2,3-g]benzothiazol-7-one]: in assay [1], the “level of airway inflammation in lung tissues” value is “significantly reduced”. In assay [2], the “Rrs values (bronchial hyperresponsiveness)” value is listed as “significantly reduced” and the “airway resistance dose response curves” value is listed as “shifted to the right”. The “cytokines and chemokines in lung tissues (IL-4, IL-5, IL-13, IL-17, KC)” value in assay [3] is “reduced”.
